Test results published in patent publication US12428406B2 (PMV Pharmaceuticals, Inc., priority 2019, dated 2025).

target: T1, p53 Y220C (Homo sapiens, UniProt P04637, Y220C); test: In vitro DNA binding activity assay (HTRF / TR-FRET): stabilization of p53 Y220C and increase of its DNA binding activity; type: biochemical; details: recombinant His-tagged p53 Y220C DNA binding domain (aa 94-312), biotin-labeled consensus DNA, incubated at 27° C. or 29° C. for 60 min
T1 construct: The recombinant protein was a truncation mutant containing only amino acids 94-312 of p53; made in house; host or cells: E. coli
Summary of the method: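 Compounds from 4.5 mM DMSO stocks, 3-fold serial dilutions; room-temperature incubations of 15 and 20 min. SC150 = concentration raising DNA binding by 50% over no-compound control.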

T1 sequence (P04637 94-312, change not shown): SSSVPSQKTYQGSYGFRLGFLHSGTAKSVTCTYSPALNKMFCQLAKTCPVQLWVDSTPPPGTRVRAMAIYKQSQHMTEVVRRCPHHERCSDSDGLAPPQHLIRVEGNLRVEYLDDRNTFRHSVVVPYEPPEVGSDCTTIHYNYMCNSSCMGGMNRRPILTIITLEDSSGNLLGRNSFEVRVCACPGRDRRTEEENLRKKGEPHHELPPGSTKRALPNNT

Compound	SC150 (concentration of the compound required to increase the DNA binding activity by 50%)
CCOc1cc(S(C)(=O)=O)ccc1NCC#Cc1cc2c(N[C@H]3CC[C@@H](N4CC5CC(C4)O5)CC3)cccc2n1CC(F)(F)F [Compound 405A, 2-{3-[(2-ethoxy-4-mcthanesulfonyl-phenyl)amino]prop-1-yn-1-yl}-N-[(1S,4S)-4-{6-oxa-3-azabicyclo[3.1.1]heptan-3-yl}cyclohexyl]-1-(2,2,2-trifluoroethyl)-1H-indol-4-amine]	+ (+ = 0 μM ≤ SC150 < 0.05 μM)
COc1cc(S(=O)(=O)N(C)C)ccc1NCC#Cc1cc2c(NC3CCNCC3)cccc2n1CC(F)(F)F [Compound 460A]	+ (+ = 0 μM ≤ SC150 < 0.05 μM)
COc1cc(S(C)(=O)=O)ccc1NCC#Cc1cc2c(N[C@H]3CCN(C(C)C)C[C@H]3F)cccc2n1CC(F)(F)F (racemic) [Compound 795A, (rac)-N-[(3R,4S)-3-fluoro-1-(propan-2-yl)piperidin-4-yl]-2-{3-[(4-methanesulfonyl-2-methoxyphenyl)amino]prop-1-yn-1-yl}-1-(2,2,2-trifluoroethyl)-1H-indol-4-amine]	+ (+ = 0 μM ≤ SC150 < 0.05 μM)
COc1cc(S(=O)(=O)NC(C)=O)ccc1NCC#Cc1cc2c(N[C@H]3CC[C@H](N4CC5(CCOCC5)C4)CC3)cccc2n1CC(F)(F)F [Compound 305A, N-((4-((3-(4-(((1R,4R)-4-(7-oxa-2-azaspiro[3.5]nonan-2-yl)cyclohexyl)amino)-1-(2,2,2-trifluoroethyl)-1H-indol-2-yl)prop-2-yn-1-yl)amino)-3-methoxyphenyl)sulfonyl)acetamide]	+ (+ = 0 μM ≤ SC150 < 0.05 μM)
CNC(=O)c1ccc(NCC#Cc2cc3c(N[C@H]4CC[C@H](N(C)C)CC4)cccc3n2CC(F)(F)F)c(OCCC#N)c1 [Compound 114A, 3-(2-cyanoethoxy)-N-methyl-4-{[3-(4-{[(1R,4R)-4-(dimethyl-amino)cyclohexyl]amino}-1-(2,2,2-trifluoro-ethyl)-1H-indol-2-yl)prop-2-yn-1-yl]amino}benzamide]	+ (+ = 0 μM ≤ SC150 < 0.05 μM)
COc1cc(S(=O)(=O)N2CCN(C(C)=O)CC2)ccc1NCC#Cc1cc2c(NC3CCOCC3)cccc2n1CC(F)(F)F [Compound 1001A, 1-(4-{3-methoxy-4-[(3-{4-[(oxan-4-yl)amino]-1-(2,2,2-trifluoroethyl)-1H-indol-2-yl}prop-2-yn-1-yl)amino]benzenesulfonyl}piperazin-1-yl)ethan-1-one]	+ (+ = 0 μM ≤ SC150 < 0.05 μM)
CCC(=O)OCCN1CCC(Nc2cccc3c2cc(C#CCNc2ccc(S(N)(=O)=O)cc2OC)n3CC(F)(F)F)CC1 [Compound 608A, 2-{4-[(2-{3-[(2-methoxy-4-sulfamoylphenyl)amino]prop-1-yn-1-yl}-1-(2,2,2-trifluoroethyl)-1H-indol-4-yl)amino]piperidin-1-yl}ethyl propanoate]	+ (+ = 0 μM ≤ SC150 < 0.05 μM)
COc1cc(S(=O)(=O)N(C)C)ccc1NCC#Cc1cc2c(NC3CCN(C(C)=O)CC3)cccc2n1CC(F)(F)F [Compound 755A, 4-[(3-{4-[(1-acetylpiperidin-4-yl)amino]-1-(2,2,2-trifluoroethyl)-1H-indol-2-yl}prop-2-yn-1-yl)amino]-3-methoxy-N,N-dimethylbenzene-1-sulfonamide]	+ (+ = 0 μM ≤ SC150 < 0.05 μM)
CNC(=O)c1ccc(NCC#Cc2cc3c(N[C@H]4CC[C@@H](N5CCOCC5)CC4)cccc3n2CC(F)(F)F)c(OC)c1 [Compound 173A, 3-methoxy-N-methyl-4-{[3-(4-{[(1S,4S)-4-(morpholin-4-yl)cyclohexyl]amino}-1-(2,2,2-trifluoro-ethyl)-1H-indol-2-yl)prop-2-yn-1-yl]amino}benzamide]	+ (+ = 0 μM ≤ SC150 < 0.05 μM)
COc1cc(S(C)(=O)=O)ccc1NCC#Cc1cc2c(NC(=O)NC3CCN(CC(O)CO)CC3)cccc2n1CC(F)(F)F (centres unmarked) [Compound 15A, 1-[1-(2,3-dihydroxypropyl)piperidin-4-yl]-3-(2-{3-[(4-methanesulfonyl-2-methoxyphenyl)amino]prop-1-yn-1-yl}-1-(2,2,2-trifluoroethyl)-1H-indol-4-yl)urea]	++++ (++++ = 0.2 μM ≤ SC150 < 1 μM)
COc1cc(Cl)ccc1NCC#Cc1cc2c(N[C@H]3CC[C@H](N4CC5(COC5)C4)CC3)cccc2n1CC(F)(F)F [Compound 265A, N-((1R,4R)-4-(2-oxa-6-azaspiro[3.3]heptan-6-yl)cyclohexyl)-2-(3-((4-chloro-2-methoxyphenyl)amino)prop-1-yn-1-yl)-1-(2,2,2-trifluoroethyl)-1H-indol-4-amine]	+ (+ = 0 μM ≤ SC150 < 0.05 μM)
COc1cc(S(C)(=O)=O)ccc1NCC#Cc1cc2c(N[C@H]3CC[C@H](N4CCC5(CCOC5)CC4)CC3)cccc2n1CC(F)(F)F [Compound 410A, 2-{3-[(4-methane-sulfonyl-2-methoxy-phenyl)amino]prop-1-yn-1-yl}-N-[(1R,4R)-4-{2-oxa-8-azaspiro[4.5]decan-8-yl}cyclohexyl]-1-(2,2,2-trifluoroethyl)-1H-indol-4-amine]	+ (+ = 0 μM ≤ SC150 < 0.05 μM)
COCC(=O)N1CCC(Nc2cccc3c2cc(C#CCNc2ccc(S(C)(=O)=O)cc2OC)n3CC(F)(F)F)CC1 [Compound 741A, 1-{4-[(2-{3-[(4-methanesulfonyl-2-methoxyphenyl)amino]prop-1-yn-1-yl}-1-(2,2,2-trifluoroethyl)-1H-indol-4-yl)amino]piperidin-1-yl}-2-methoxyethan-1-one]	+ (+ = 0 μM ≤ SC150 < 0.05 μM)
CN1CC[C@@H](Nc2cccc3c2cc(C#CCNC(=O)[C@@H]2C[C@H]2c2ccccc2)n3CC(F)(F)F)[C@@H](F)C1 [Compound 952A, (1R,2R)—N-[3-(4-{[(3S,4R)-3-fluoro-1-methylpiperidin-4-yl]amino}-1-(2,2,2-trifluoroethyl)-1H-indol-2-yl)prop-2-yn-1-yl]-2-phenylcyclopropane-1-carboxamide]	+ (+ = 0 μM ≤ SC150 < 0.05 μM)
COc1cc(S(N)(=O)=O)ccc1NCC#Cc1cc2c(NC3CCN(C(=O)CC#N)CC3)cccc2n1CC(F)(F)F [Compound 747A]	+ (+ = 0 μM ≤ SC150 < 0.05 μM)
COc1cc(C(=O)N(C)C)ccc1NCC#Cc1cc2c(N[C@@H]3CCN(C)C[C@@H]3F)cccc2n1CC(F)(F)F [Compound 942A, 4-{[3-(4-{[(3S,4R)-3-fluoro-1-methylpiperidin-4-yl]amino}-1-(2,2,2-trifluoroethyl)-1H-indol-2-yl)prop-2-yn-1-yl]amino}-3-methoxy-N,N-dimethylbenzamide]	+ (+ = 0 μM ≤ SC150 < 0.05 μM)
COc1cc(S(C)(=O)=O)ccc1NCC#Cc1cc2c(N[C@@H]3CCN(C(C)=O)C[C@@H]3F)cccc2n1CC(F)(F)F [Compound 862A, 1-[(3S,4R)-3-fluoro-4-[(2-{3-[(4-methanesulfonyl-2-methoxyphenyl)amino]prop-1-yn-1-yl}-1-(2,2,2-trifluoroethyl)-1H-indol-4-yl)amino]piperidin-1-yl]ethan-1-one]	+ (+ = 0 μM ≤ SC150 < 0.05 μM)
